Active and inactive are the calls of the source. How the calls were made is not given here.
The compounds below were run against Replicase polyprotein 1ab (Severe acute respiratory syndrome coronavirus) (UniProt P0C6X7) (assay: papain-like protease inhibition, dose response, biochemical, luminescence, counter-screen for SARS-CoV 3CLpro inhibitor project (AID 1944)). Conditions: SARS-CoV PLpro enzymatic assay.

| Compound | IC50 |
| --- | --- |
| COc1cccc(C(C(=O)NCc2ccco2)N(Cc2ccco2)C(=O)Cn2nnc3ccccc32)c1 (centres undefined) | > 59.6 µM (inactive) |
| COc1ccc(C(=O)n2c(SC)nc3cc4c(cc32)OCCO4)cc1 | 2.46 µM |
| COc1cccc(/C=N/NC(=S)Nc2cccnc2)c1 | inactive |
| O=C1C(=O)N(C/C=C/c2ccccc2)c2ccccc21 | > 59.6 µM (inactive) |

Reference: PubChem BioAssay AID1944 (The Scripps Research Institute Molecular Screening Center, 2009)
